Source: patent publication US9233971B2, “Lipomacrocycles and uses thereof” (priority 2010, dated 2016)

Assays:
[1] = test system: SSB mRNA in liver; assay: In vivo gene knockdown, liposomal siRNA formulation (Example 3), SSB siRNA; design: species or system CD1 mice; settings: liposomal formulation, SSB siRNA, dose 3.2 mg/kg intravenously, CD1 mice, liver harvested three days later, real-time RT-PCR, GAPDH reference
Description: (§1) Each liposome formulation was made by mixing lipids of each lipomacrocycle compound (Table 1) combined with DSPC, DMG-PEG 2K, and cholesterol at the weight ratio of 3.85:0.42:0.21:0.79 in ethanol and siRNA in water. Then 5% dextrose water was added in each formulation before dosing to mice.
(§2) All procedures used in animal studies conducted were approved by the Institutional Animal Care and Use Committee (IACUC) and were consistent with local, state and federal regulations as applicable. Mice, rats, and rabbits received siRNA formulations intravenously at dose volume of 0.2 ml, 1 ml, or 10 ml, respectively. Animals were sacrificed 2 to 7 days later. Tissues were harvested and mRNA was isolated with Turbocapture kit (Qiagen) for analyzing change of gene expression with real-time RT-PCR method (SensiMix SYBR One-Step Kit, Bioline). Serum was harvested for analyzing blood chemistry.
(§3) CD1 mice were dosed with lipid particle (Table 1) or liposome (Table 2) siRNA formulation intravenousely and the different tissues were harvested three days later. The gene expression was analyzed with real-time RT-PCR method (for liver, GAPDH as reference gene; for lung and bone marrow, GAPDG and β-actin as reference genes).

[2] = test system: SSB mRNA in liver; assay: In vivo gene knockdown, lipid particle siRNA formulation (Example 4), SSB siRNA; settings: lipid particles, dose 3.2 mg/kg intravenously, CD1 mice, liver harvested three days later, real-time RT-PCR, GAPDH reference
Description: Lipid Particle formulations were made by first mixed siRNA in an aqueous solution with DOTMA in organic solvent to produce a water-insoluble precipitate. After isolating and drying the precipitate, the precipitate was dissolved in chloroform and further mixed with other lipids as following: Each lipid particle formulation was consisting of 1 part DOTMA+siRNA complex/5 parts any lipomacrocycle compound (Table 1)/1.5 parts N 6-tetrakis (3-aminopropyl)-1,3-propanediamine cholesteryl carbamate/2.2 parts 1,2-dilinoleoyl-sn-glycero-3-phosphoethanolamine/10.08 parts cholesterol PEG-660/4.32 parts cholesterol PEG-660/0.6 parts cholesterol (weight/weight). All the components were dissolved in chloroform and mixed together. Then, the mixtures were dried overnight in Speedvac. The dried formulations were hydrated by adding in certain amount of 5% dextrose water before dosing to animals intravenously.
as §2, §3

[3] = test system: APOB mRNA in liver; assay: In vivo gene knockdown, liposomal siRNA formulation (Example 3), APOB siRNA; settings: dose 3 mg/kg intravenously, CD1 mice, liver harvested three days later, real-time RT-PCR, GAPDH reference
Description: as §1, §2, §3

SMILES	Targeted mRNA remain in liver [1]	Targeted mRNA remain in liver [2]	Targeted mRNA remain in liver [3]
CCCCCCCCCCCCCCC(O)CN1CCN(Cc2ccccc2)CCN(CC(O)CCCCCCCCCCCCCC)CCN(CC(O)CCCCCCCCCCCCCC)CC1 (stereo not shown) [Compound M1C7]	0.47	0.35	
CCCCCCCCCCCCCCOCC(O)CN1CCN(Cc2ccccc2)CCN(CC(O)COCCCCCCCCCCCCCC)CCN(Cc2ccccc2)CC1 (stereo not shown) [Compound M6C1]	0.98	0.64	
CCCCCCCCCCCCCCOCC(O)CN1CCCN(CC(O)COCCCCCCCCCCCCCC)CCCN(CC(O)COCCCCCCCCCCCCCC)CCC1 (stereo not shown) [Compound M9C1]	0.3	0.2	
CCCCCCCCCCCCC(O)CN1CCN(CC(O)CCCCCCCCCCCC)CCN(CC(O)CCCCCCCCCCCC)CCN(CC(O)CCCCCCCCCCCC)CC1 (stereo not shown) [Compound T2C6]	0.66	0.86	
CCCCCCCCCCCCCCOCC(O)CN(CCCN(CCCN(CCCN(CC(O)COCCCCCCCCCCCCCC)CC(O)COCCCCCCCCCCCCCC)CCCN(CC(O)COCCCCCCCCCCCCCC)CC(O)COCCCCCCCCCCCCCC)CCCN(CC(O)COCCCCCCCCCCCCCC)CC(O)COCCCCCCCCCCCCCC)CC(O)COCCCCCCCCCCCCCC (stereo not shown) [Compound T3C1]	0.13	0.18	
CCCCCCCCCCCCOCC(O)CN(CCCN(CCCCN(CCCN(CC(O)COCCCCCCCCCCCC)CC(O)COCCCCCCCCCCCC)CCCN(CC(O)COCCCCCCCCCCCC)CC(O)COCCCCCCCCCCCC)CCCN(CC(O)COCCCCCCCCCCCC)CC(O)COCCCCCCCCCCCC)CC(O)COCCCCCCCCCCCC (stereo not shown) [Compound T4C10]			0.82
CC(C)(C)c1ccc(C(=O)OCC(O)CN(CCCN(CCCCN(CCCN(CC(O)COC(=O)c2ccc(C(C)(C)C)cc2)CC(O)COC(=O)c2ccc(C(C)(C)C)cc2)CCCN(CC(O)COC(=O)c2ccc(C(C)(C)C)cc2)CC(O)COC(=O)c2ccc(C(C)(C)C)cc2)CCCN(CC(O)COC(=O)c2ccc(C(C)(C)C)cc2)CC(O)COC(=O)c2ccc(C(C)(C)C)cc2)CC(O)COC(=O)c2ccc(C(C)(C)C)cc2)cc1 (stereo not shown) [Compound T4C11]			1.07
CC(C)(C)C(O)(CCc1ccc(Cl)cc1)CN(CCCN(CCCCN(CCCN(CC(O)(CCc1ccc(Cl)cc1)C(C)(C)C)CC(O)(CCc1ccc(Cl)cc1)C(C)(C)C)CCCN(CC(O)(CCc1ccc(Cl)cc1)C(C)(C)C)CC(O)(CCc1ccc(Cl)cc1)C(C)(C)C)CCCN(CC(O)(CCc1ccc(Cl)cc1)C(C)(C)C)CC(O)(CCc1ccc(Cl)cc1)C(C)(C)C)CC(O)(CCc1ccc(Cl)cc1)C(C)(C)C (stereo not shown) [Compound T4C18]			1.56
